# Results: patent publication EP0601184A1, “FUSED PYRIDAZINE COMPOUND AND PHARMACEUTICAL USE THEREOF” (YOSHITOMI PHARMACEUTICAL INDUSTRIES, LTD., priority 1991, dated 1993)
# Legend:
# [1] = tested on: GABA-induced chloride current; format: cell-based, American bullfrogs; details: dorsal root ganglion neurons
# Description: The test was carried out according to the method of Akaike et al. reported in Journal of Physiology (London), 379, 171 (1986) using sensory neurons isolated from dosal root ganglion of American bullfrogs. Neurons were voltage-clamped at a holding membrane potential of -50 mV with a single-electrode voltage-clamp system. Test compounds were applied by using a concentration-clamp technique. When the peak Cl⁻ current (ICl) elicited by 3 x 10⁻⁶ M GABA alone was presented as 1, the augumentive ICl of the test compounds in the presence of 3 x 10⁻⁶ M GABA was measured. The results were presented as relative ICl values in Table 1.
# [2] = target: benzodiazepine (BZP) receptors; assay: Displacement ability for benzodiazepine receptor (tritiated diazepam binding, crude synaptosome fraction of cerebral cortex); parameters: species or system Wistar rats; details: displacement of tritiated diazepam (2 nM), 0°C, 20 minutes, rat cerebral cortex synaptosome fraction
# Description: The test of specific binding to benzodiazepine (BZP) receptors was carried out according to the method described in Life Science, vol. 20, 2101 (1977).
# The crude synaptosome fraction isolated from the cerebral cortex of male Wistar rats aged 9-10 weeks, was suspended in 50 mM Trishydrochloric acid buffer (pH 7.4) containing 120 mM sodium chloride and 5 mM potassium chloride. The suspension was used for the following experiment.
# The test compound in several different concentrations and tritiated diazepam (in final concentration of 2 nM) were added to the synaptosomal suspension, and the mixture was incubated at 0°C for 20 minutes. The suspension was filtered with Whatman GF/B (Trademark) glassfiber filter. After the filter was washed with the above-mentioned buffer, the radio activity left on the filter was measured with a liquid scintillation counter.
# The specific binding was determined by subtracting the binding in the presence of 10⁻⁶ M unlabelled diazepam from total binding.
# The affinity for benzodiazepine receptors of the compound of the present invention is evaluated from its displacement ability for tritiated diazepam at its binding site, which is represented by Ki value (nM).
# male ddY mice = assay: Acute toxicity; format: in vivo; details: 5 days
# Description: Groups of 5 male ddY mice were used. […] Similarly, the mice were orally administered with 1000 mg/kg of the compound, but they survived for 5 days after the administration.
Relative ICl [1],Ki [2] [nM],SMILES,"survival after administration (male ddY mice; 300 mg/kg intraperitoneally, groups of 5 male ddY mice)","survival after administration (male ddY mice; 1000 mg/kg orally, male ddY mice)"
1.38,4.2,"CC(=O)c1cc2c(s1)CCCC1CC(=O)N(c3ccc(Cl)cc3)N=C21 (stereo not shown) [Example 18, 9-acetyl-2-(4-chlorophenyl)-2,4,4a,5,6,7-hexahydro-3H-thieno[2',3':6,7]cyclohepta[1,2-c]pyridazin-3-one]",–,–
–,–,"O=C(c1ccccc1)c1cc2c(s1)CCC1CC(=O)N(c3ccc(Cl)cc3)N=C21 (stereo not shown) [Example 16, 8-benzoyl-2-(4-chlorophenyl)-4,4a,5,6-tetrahydrothieno[2,3-h]cinnolin-3(2H)-one]",all mice survived,survived
